Measured values as given in patent US10982337B2, “Corrosion inhibition” (SCHLUMBERGER TECHNOLOGY CORPORATION, priority 2015, dated 2021).

Key:
[1] = Corrosion weight loss test on steel coupons in HCl; set-up: Pitting Index: scale not given here
From the text: (§1) Such “acceptable” levels of corrosion are application-specific.

[2] = Corrosion weight loss test on steel coupons in HCl; set-up: Pitting Index: scale not given here; remark: listed apart in the source
From the text: as §1

[3] = Corrosion weight loss test on steel coupons in HCl; set-up: Pitting Index: scale not given here; remark: listed apart in the source
From the text: as §1

[4] = Rotating Cylinder Electrode electrochemistry, charge transfer resistance; settings: 5 mM inhibitor, 10 mM KI, 4 mol/L HCl, 2000 rpm, 80° C.; FIG. 6
From the text: (§2) EIS can be used to monitor the corrosion rate of a system. The parameter of interest is the charge transfer resistance, Rct, which can be thought of the ‘resistance’ to corrosion. A metal test piece is used as the working electrode in a three-electrode electrochemical cell with the corrosive solution as electrolyte. Impedance data is obtained by applying a small alternating voltage to the working electrode and measuring the resulting current to obtain a value of impedance. This is done at a range of frequencies. Then, in order to extract the parameter of interest, the metal/inhibitor/electrolyte interfaces are modelled as an electrical equivalent circuit and the theoretical impedance is fitted to the data. […] Charge transfer resistance, Rct, is measured. Charge transfer resistance, Rct is a measure for corrosion resistance, and is inversely proportional to corrosion rate (CR). Therefore 1/Rct is proportional to CR.

[5] = as above; settings: 5 mM inhibitor, 10 mM KI, 4 mol/L HCl, 2000 rpm, 80° C.; FIG. 6; remark: listed apart in the source
From the text: as §2

[6] = Corrosion weight loss test on steel coupons in HCl
Procedure: Experiments were carried out with coupons of the following steels: • 22Cr125 also designated 2205, a duplex alloy steel which is an iron-chromium-nickel-molybdenum alloy, used (among other things) to fabricate casing. • HS80™ (TradeMark of TENARIS), a low carbon steel used to fabricate coiled tubing. • N80, a medium carbon steel used to fabricate borehole casing. • 13Cr80, an alloy steel containing 13 wt % chromium without nickel, also used to fabricate borehole casing.
(1) Metal Type: Duplex Stainless Steel 22Cr125 Casing (2205 b6); 4 mol/L HCl, T=80° C., 3 Hours Exposure

[7] = Rotating Cylinder Electrode electrochemistry, charge transfer resistance; settings: 5 mM inhibitor, 10 mM KI, 4 mol/L HCl, 2000 rpm, 80° C.; FIG. 6; remark: listed apart in the source
From the text: as §2

[8] = as above; settings: 5 mM inhibitor, 10 mM KI, 4 mol/L HCl, 2000 rpm, 80° C.; FIG. 6; remark: listed apart in the source
From the text: as §2

[9] = Marine algal growth inhibition test ISO 10253; type: cell-based, Skeletonema costatum; settings: Skeletonema costatum, cultures of the marine alga Skeletonema costatum; algal growth inhibition, 72 h, WAF in sea water, 10-1000 mg/L tested
Procedure: (§3) The acute toxicity of NMHQ to the marine algae Skeletonema costatum was tested. Cultures of the algae Skeletonema costatum were exposed to a series of concentrations of NMHQ. The test was carried out according to ISO protocol ‘ISO 10253 Water quality—Marine algal growth inhibition test with Skeletonema costatum and Phaeodactylum tricornutum’.
(§4) In addition to blank, concentrations of 10, 100, 1000 mg/L (WAF) in sea water were tested.

Skeletonema costatum = experiment: Marine algal growth inhibition test ISO 10253; type: cell-based
Procedure: as §3, §4

[10] = 0.3000 wt % (10.97 mmol/L), 4 mol/L HCl, 80° C., 3 hours

## naphthylmethylquinolinium chloride [NMQCl, reference compound]
[1]; 0.1534 wt % (5.02 mmol/L), 4 mol/L HCl, 80° C., 3 hours
  Pitting Index: 3
[1]; 0.3386 wt % (11.07 mmol/L), 4 mol/L HCl, 80° C., 3 hours
  Pitting Index: 0
[1]; 0.3394 wt % (11.10 mmol/L), 4 mol/L HCl, 80° C., 3 hours
  Pitting Index: 0
[2]; 0.0015 wt % (0.05 mmol/L), 4 mol/L HCl, 80° C., 3 hours
  Pitting Index: 5
[2]; 0.06225 wt % (2.04 mmol/L), 4 mol/L HCl, 80° C., 3 hours
  Pitting Index: 0
[2]; 0.1531 wt % (5.01 mmol/L), 4 mol/L HCl, 80° C., 3 hours
  Pitting Index: 0
[2]; 0.3366 wt % (11.01 mmol/L), 4 mol/L HCl, 80° C., 3 hours
  Pitting Index: 0
[3]; 0.1545 wt % (5.05 mmol/L), 4 mol/L HCl, 80° C., 3 hours
  Pitting Index: 5
[3]; 0.3466 wt % (11.33 mmol/L), 4 mol/L HCl, 80° C., 3 hours
  Pitting Index: 0
[4]
  1/Rct (proportional to corrosion rate), NMHQ compared with NMQCl: very similar results
[5]
  1/Rct (proportional to corrosion rate), NMHQ compared with NMQCl: very similar results
[6]; 0.123 wt % (4.03 mmol/L), 2205 b6, 4 mol/L HCl, 80° C., 3 hours
  Pitting Index: 4
[6]; 0.322 wt % (10.54 mmol/L), 2205 b6, 4 mol/L HCl, 80° C., 3 hours
  Pitting Index: 0
[6]; 0.612 wt % (20.00 mmol/L), 2205 b6, 4 mol/L HCl, 80° C., 3 hours
  Pitting Index: 0

## c1ccc2c(c1)CCCN2Cc1cccc2ccccc12 [NMTHQ]
[1]; 0.1368 wt % (5.00 mmol/L), no KI, 4 mol/L HCl, 80° C., 3 hours
  Pitting Index: 3
[1]; 0.1389 wt % (5.08 mmol/L) + KI 10 mmol/L
  Pitting Index: 0
[1]; 0.2065 wt % (7.55 mmol/L), 4 mol/L HCl, 80° C., 3 hours
  Pitting Index: 2
[1]; [10]
  Pitting Index: 0
[1]; 0.3013 wt % (11.02 mmol/L), 4 mol/L HCl, 80° C., 3 hours
  Pitting Index: 0
[1]; 0.3017 wt % (11.04 mmol/L), 4 mol/L HCl, 80° C., 3 hours
  Pitting Index: 0
[1]; N80, NMTHQ 4.0-5.1 mmol/L
  factor by which addition of 10 mM potassium iodide reduces the weight loss: 5.3
[2]; 0.0055 wt % (0.20 mmol/L), 4 mol/L HCl, 80° C., 3 hours
  Pitting Index: 5
[2]; 0.0273 wt % (1.00 mmol/L), 4 mol/L HCl, 80° C., 3 hours
  Pitting Index: 2
[2]; 0.11 wt % (4.02 mmol/L), 4 mol/L HCl, 80° C., 3 hours
  Pitting Index: 0
[2]; 0.1366 wt % (5.00 mmol/L) + KI 10 mmol/L
  Pitting Index: 0
[2]; 0.1366 wt % (5.00 mmol/L), no KI, 4 mol/L HCl, 80° C., 3 hours
  Pitting Index: 0
[2]; 0.192 wt % (7.02 mmol/L), 4 mol/L HCl, 80° C., 3 hours
  Pitting Index: 0
[2]; HS80, NMTHQ 4.0-5.1 mmol/L
  factor by which addition of 10 mM potassium iodide reduces the weight loss: 8.8
[3]; 0.1367 wt % (5.00 mmol/L), no KI, 4 mol/L HCl, 80° C., 3 hours
  Pitting Index: 4
[3]; 0.1382 wt % (5.06 mmol/L) + KI 10 mmol/L
  Pitting Index: 0
[3]; [10]
  Pitting Index: 0
[3]; 13Cr80, 4 mol/L HCl, 80° C., 3 hours
  inhibition performance compared at equivalent molar concentrations (in words): superior to the known acid corrosion inhibitor, NMQCl
[3]; 13Cr80, NMTHQ 4.0-5.1 mmol/L
  factor by which addition of 10 mM potassium iodide reduces the weight loss: 10.5
[4]
  1/Rct (proportional to corrosion rate), NMHQ compared with NMQCl: very similar results
[5]
  1/Rct (proportional to corrosion rate), NMHQ compared with NMQCl: very similar results
[7]
  1/Rct (proportional to corrosion rate), NMHQ compared with NMQCl: more effective inhibitor
[8]
  1/Rct (proportional to corrosion rate), NMHQ compared with NMQCl: significant lower
[9]
  EC50 at 72 h: > 1000 µg/mL
  EC90 at 72 h: > 1000 µg/mL
Skeletonema costatum; algal growth inhibition, 72 h, WAF in sea water, 10-1000 mg/L tested
  NOEC(72 h): 1000 mg/L
Skeletonema costatum; seawater under neutral conditions (pH 7.7-8.3)
  aquatic toxicity (in words): zero aquatic toxicity
[6]; 0.11 wt % (4.02 mmol/L) + KI 10 mmol/L, 2205 (b6)
  Pitting Index: 0
[6]; 0.11 wt % (4.02 mmol/L), no KI, 2205 b6, 4 mol/L HCl, 80° C., 3 hours
  Pitting Index: 4
[6]; 0.1367 wt % (5.00 mmol/L), KI 0, 2205 (b5)
  Pitting Index: 4
[6]; 0.1368 wt % (5.00 mmol/L) + KI 20 mmol/L, 2205 (b5)
  Pitting Index: 0
[6]; 0.1913 wt % (7.00 mmol/L), 2205 b6, 4 mol/L HCl, 80° C., 3 hours
  Pitting Index: 3
[6]; 0.30 wt % (10.97 mmol/L), 2205 b6, 4 mol/L HCl, 80° C., 3 hours
  Pitting Index: 0
[6]; 0.547 wt % (20.01 mmol/L), 2205 b6, 4 mol/L HCl, 80° C., 3 hours
  Pitting Index: 0
[6]; 22Cr125, 4 mol/L HCl, 80° C., 3 hours
  inhibition performance compared at equivalent molar concentrations (in words): very similar to the known acid corrosion inhibitor NMQCl
[6]; 2205 (b6), NMTHQ 4.0-5.1 mmol/L
  factor by which addition of 10 mM potassium iodide reduces the weight loss: 9.4
